Measurements: US11746116B2, “Antibiotic resistance breakers” (KING'S COLLEGE LONDON, priority 2017, dated 2023)
Values after ≈ are worked out from the molar mass of the structure shown.

Experiments:
KP13368 = test: MIC, microdilution broth method; assay type: cell-based; details: for MIC: KP13368, in µg/mL
M6 = test: MIC, microdilution broth method; assay type: cell-based; details: in µg/mL; for MIC: M6
Ab17978 = test: MIC, microdilution broth method; assay type: cell-based; details: in µg/mL; for MIC: Ab17978
PA01 = test: MIC, microdilution broth method; assay type: cell-based, Pseudomonas aeruginosa; details: in µg/mL; for MIC: PA01
PA13437 = test: MIC, microdilution broth method; assay type: cell-based; details: for MIC: PA13437
EC12923 = test: MIC, microdilution broth method; assay type: cell-based; details: in µg/mL
MSSA9144 = test: MIC, microdilution broth method; assay type: cell-based, Staphylococcus aureus; details: in µg/mL; for MIC: MSSA9144
EMRSA15 = test: MIC, microdilution broth method; assay type: cell-based, Staphylococcus aureus; details: in µg/mL; for MIC: EMRSA15
EMRSA16 = test: MIC, microdilution broth method; assay type: cell-based, Staphylococcus aureus; details: in µg/mL; for MIC: EMRSA16
VSE775 = test: MIC, microdilution broth method; assay type: cell-based, Enterococcus faecalis; design: MIC, VSE775: unit not given beside the values; details: for MIC: VSE775, in µg/mL
VRE12201 = test: MIC, microdilution broth method; assay type: cell-based, Enterococcus faecalis; details: in µg/mL; for MIC: VRE12201
VRE12204 = test: MIC, microdilution broth method; assay type: cell-based, Enterococcus faecium; details: in µg/mL; for MIC: VRE12204
AYE = test: MIC, microdilution broth method; assay type: cell-based, Acinetobacter baumannii; details: AYE, in µg/mL
SA4 = test: MIC, extended Gram-positive panel; assay type: cell-based, S. aureus; details: S. aureus SA4; gyrA, 84:S => L; grlA, 80:S => F

| SMILES | MIC (KP13368; Normal (no PMBN)) | MIC (M6; Normal (no PMBN)) | MIC (AYE; Normal (no PMBN)) | MIC (Ab17978; Normal (no PMBN)) | MIC (PA01; Normal (no PMBN)) | MIC (MSSA9144) | MIC (EMRSA15) | MIC (EMRSA16) | MIC (VSE775) | MIC (VRE12201) | MIC (VRE12204) | other results |
| --- | --- | --- | --- | --- | --- | --- | --- | --- | --- | --- | --- | --- |
| C[C@H]1COc2c(N3CC[C@@H](N)C3)c(F)cc3c(=O)c(C(=O)O)cn1c23 [KSN-L44-D, (S)-10-((R)-3-aminopyrrolidin-1-yl)-9-fluoro-3-methyl-7-oxo-2,3-dihydro-7H-[1,4]oxazino[2,3,4-ij]quinoline-6-carboxylic acid] | – | – | – | – | – | – | – | – | – | – | – | MIC, KP13368 (KP13368; ESKAPE panel, Gram-negative): 4 µg/mL (≈ 11.5 µM); MIC, M6 (M6; ESKAPE panel, Gram-negative): ≤0.125; MIC, Ab17978 (Ab17978; ESKAPE panel, Gram-negative): 2; MIC, PA01 (PA01; ESKAPE panel, Gram-negative): 0.25-0.5; MIC, PA13437 (PA13437; ESKAPE panel, Gram-negative): 32 µg/mL (≈ 92.1 µM); MIC, EC12923 (EC12923; ESKAPE panel, Gram-negative): ≤0.125; MIC, MSSA9144 (MSSA9144; ESKAPE panel, Gram-positive): 0.25; MIC, EMRSA15 (EMRSA15; ESKAPE panel, Gram-positive): 32; MIC, EMRSA16 (EMRSA16; ESKAPE panel, Gram-positive): 32; MIC, VSE775 (VSE775; ESKAPE panel, Gram-positive): 1-4; MIC, VRE12201 (VRE12201; ESKAPE panel, Gram-positive): 0.5-1; MIC, VRE12204 (VRE12204; ESKAPE panel, Gram-positive): 1 |
| CCn1cc(C(=O)O)c(=O)c2cc(F)c(N3CCN(Cc4cc(=O)[nH]c5ccccc45)CC3)cc21 [ML-77-059] | >32 | 16 | >32 | 32 | >32 | 16-32 | >32 | >32 | >32 | >32 | >32 | MIC (PA13437; Normal (no PMBN)): > 32 µg/mL |
| C[C@H]1COc2c(N3CCN(c4ccncn4)CC3)c(F)cc3c(=O)c(C(=O)O)cn1c23 [ML-83-001, (S)-9-fluoro-3-methyl-7-oxo-10-(4-(pyrimidin-4-yl)piperazin-1-yl)-2,3-dihydro-7H-[1,4]oxazino[2,3,4-ij]quinoline-6-carboxylic acid] | 64 | 8 | – | 4 | 32 | 0.06 | 4 | 4 | 0.25 | 0.25 | 2 | MIC (KP13368; +PMBN): 4; MIC (M6; +PMBN): 0.5; MIC (AYE; +PMBN): 64; MIC (Ab17978; +PMBN): 1; MIC (PA01; +PMBN): 1; MIC (PA13437; +PMBN): 32 µg/mL (≈ 75.2 µM) |
| C[C@H]1COc2c(N3CCCN(c4cnccn4)CC3)c(F)cc3c(=O)c(C(=O)O)cn1c23 [ML-83-041 (5.16), (S)-9-fluoro-3-methyl-7-oxo-10-(4-(pyrazin-2-yl)-1,4-diazepan-1-yl)-2,3-dihydro-7H-[1,4]oxazino[2,3,4-ij]quinoline-6-carboxylic acid] | 16-32 | 2 | 64-128 | 1 | 16-32 | ≤0.125 | 4-8 | 8 | 1 | 0.5-1 | 4 | MIC (EC12923; EC12923): 1-2 |
| CCn1cc(C(=O)O)c(=O)c2cc(F)c(N3CCNCC3)cc21 [NOR] | – | – | – | – | – | – | – | – | – | – | – | MIC (SA4): 64 µg/mL (≈ 200 µM) |
